{"source": "patent US20070072931A1", "about": "“Pharmaceutical composition and a method for treatment of prostate cancer” (priority 2005, published 2007)", "key": {"caspase 3": {"tested_on": "caspase 3", "test": "Immunoblotting of caspase 3 activation in PC-3 cells", "type": "cell-based, human", "procedure": "(§1) PC-3 cells (1×10^6 cells) were incubated with complete medium. Cells were detached using cell dissociation reagent from Sigma Chemical company St Louis, Mo., USA. They were collected by centrifugation at 1500 g for 10 minutes and boiled for 5-7 minutes in sodium dodecyl sulphate (SDS) buffer (pH 6.8). Aliquots containing 60 μg total cellular protein were separated by 10% SDS-PAGE and transferred to PVDF membrane (MILIPORE, Bedford, Mass., USA). Membrane was blocked with blocking buffer for 1 hr at room temperature and probed with desired primary antibody caspase 9, Bcl-xl, pAkt/1/2/3(ser 473), anti PARP, Cytochrome C (Santa-Cruz Biotechnology, Inc. USA). Anti caspase 3 that recognizes procaspase 3 (32 kDa) and the active cleaved caspase 3 (17 kDa) (BD Biosciences, Mountainview, Calif.). Akt, cleaved caspase 9 (Cell Signaling technology, Beverly, Mass.) overnight at 4° C. followed by alkaline phosphatase conjugated secondary antibody and detection.\n(§2) PC-3 cells (1×10^6 cells) were incubated with complete medium alone or with 3 μg/ml of Mahanine (MK-3) as indicated. Cells were detached using cell dissociation reagent from Sigma Chemical company St Louis, Mo., USA. The cells were collected by centrifugation at 1500 g for 10 minutes and boiled for 5-7 minutes in SDS buffer (pH 6.8). […]"}, "PC-3 cells": {"tested_on": "PC-3 cells", "test": "Viability of PC-3 by MTT assay (CellTiter 96 AQueous One)", "type": "cell-based, human", "details": "mahanine 1, 2, 3 μg/ml vs untreated cells", "procedure": "Human prostate cancer cell line, PC-3 (PTEN-ve, androgen independent) from American Type Culture Collection, Manassas, Va., USA was used. Cells were grown in Dulbecco's Modified Eagle Medium (DMEM) supplemented with 10% Fetal Bovine Serum (FBS) and 1% antibiotic-antimycotic. Cells were cultured in 37° C. in an atmosphere of 5% CO2.\nViability of PC-3 after treatment as at the indicated times was determined by MTT assay—CellTiter 96® AQoueus One Solution Cell Proliferation Assay (Promega Corp., Madison, Wis.), as per manufacturer's protocol. Briefly, 10,000 cells were plated in triplicate in 96 well plates and incubated for 12 hrs in complete media. […] Absorbance was recorded at 490 nm with 96 well plate readers. Reference wavelength of 630 nm was used to reduce background contributed by non-specific absorbance due to cell debris. […]\nViability of PC-3 after treatment as at the indicated times was determined by MTT assay—CellTiter 96® AQoueus One Solution Cell Proliferation Assay (Promega Corp., Madison, Wis.), as per manufacturer's protocol.\nBriefly, 10,000 cells were plated in triplicate in 96 well plates and incubated for 12 hrs in complete media. […] Absorbance was recorded at 490 nm with 96 well plate readers. Reference wavelength of 630 nm was used to reduce background contributed by non-specific absorbance due to cell debris."}, "cardiomyocytes": {"tested_on": "cardiomyocytes", "test": "Cell viability, primary culture of rat neonatal cardiomyocytes", "type": "cell-based", "details": "9 μg/ml", "procedure": "(§3) The cardiomyocytes from 2-day-old neonatal rat were isolated by the method previously described by Yoshihiro Kimura (1994) with modifications. Briefly, heart was excised and minced in pre warmed (37° C.) Ads buffer (1.2M NaCl, 198 mM HEPES, 54 mM KCl, 8.3 mM MgSO4, 55.4 mM glucose, 95 mM NaH2PO4), digested in type II Collagenase 0.05% and Pancreatin in three successive digestions of 15 minutes each. Supernatant was pooled and cells palleted at 2000 g, for 10 minutes. Cells were resuspended and plated in collagen coated T-25 flasks in Medium-199 enriched with 10% FBS and 1% antibiotic-antimycotic.\nas §3, with “Briefly, the” for “Briefly,”, “pre-warmed” for “pre warmed”, “3-succesive” for “three successive”, “g,” for “g, for”\n(§4) To evaluate the specificity of mahanine, its effect on other cells in primary culture, such as, hepatocytes, cardiomyocyte and skeletal muscle was examined."}, "Bcl-xl": {"tested_on": "Bcl-xl", "test": "Immunoblotting of Bcl-xl expression in PC-3 cells", "type": "cell-based, human", "details": "36 hrs (mahanine 3 μg/ml)", "procedure": "as §1, §2"}, "Akt": {"tested_on": "Akt", "test": "Immunoblotting of Akt and pAkt (ser 473) in PC-3 cells", "type": "cell-based, human", "procedure": "as §1\nPC-3 cells (1×10^6 cells) were incubated with complete medium alone or with 3 μg/ml of Mahanine (MK-3) as indicated. Cells were detached using cell dissociation reagent from Sigma Chemical company St Louis, Mo., USA. The cells were collected by centrifugation at 1500 g for 10 minutes and boiled for 5-7 minutes in SDS buffer (pH 6.8). Aliquots containing 60 μg total cellular protein were separated by 10% SDS-PAGE and transferred to PVDF membrane (MILIPORE, Bedford, Mass., USA). Membrane was blocked with blocking buffer for 1 hr at room temperature and probed with desired primary antibody caspase 9, Bcl-xl, pAkt/1/2/3(ser 473), anti PARP, Cytochrome C (Santa-Cruz Biotechnology Inc., USA). Anti-caspase 3 that recognizes procaspase 3 (32 kDa) and the active cleaved caspase 3 (17 kDa) (BD Biosciences, Mountainview, Calif.) were also used. Akt, cleaved caspase 9 (Cell Signaling Technology, Beverly, Mass.) overnight at 4° C. followed by alkaline phosphatase conjugated secondary antibody and detection."}, "hepatocytes": {"tested_on": "hepatocytes", "test": "Cell viability, primary culture of rat neonatal hepatocytes", "type": "cell-based", "details": "9 μg/ml", "procedure": "(§5) The hepatocytes from 2-day-old neonatal rats were isolated by method described previously by William E. Russell (1997) with modifications. Briefly, the livers were perfused through the portal vein with a calcium-free solution consisting of 150 mM NaCl, 2.8 mM KCl, 5.5 mM glucose, and 25 mM HEPES (pH 7.6) for 10 minutes, followed by mincing and digestion in DMEM containing 0.05% collagenase type IV for 30 minutes. The cells were centrifuged (2000 g, 10 minutes) and dispersed in DMEM enriched with 10% FBS, 1% antibiotic-antimycotic.\nThe hepatocytes from 2-day-old neonatal rat were isolated by method described previously by William E Russell (1997) with modifications.\nas §5, with “Briefly,” for “The hepatocytes from 2-day-old neonatal rats were isolated by method described previously by William E. Russell (1997) with modifications. Briefly,”\nas §4"}, "caspase 9": {"tested_on": "caspase 9", "test": "Immunoblotting of caspase 9 activation in PC-3 cells", "type": "cell-based, human", "details": "3 μg/ml", "procedure": "as §1, §2"}, "LNCaP cells": {"tested_on": "LNCaP cells", "test": "Cell killing / viability of androgen dependent prostate cancer cell line LNCaP", "type": "cell-based", "details": "mahanine 1, 2, 3 μg/ml vs untreated cells", "procedure": "FIG. 2 is a graph showing dose response of PC-3 and LNCaP cell line to mahanine. […] The dose used was 1, 2, 3 μg/ml in comparison to control untreated cells (0) in both the cell lines."}, "[1]": {"test": "Acute toxicity as per WHO guidelines, haematological and biochemical parameters", "type": "in vivo, Mice; Balb/C", "procedure": "Experiments for acute toxicity were performed as per the guidelines of WHO.\nExperimental subject: Mice; Balb/C Male, female; 25 gms body weight (approx).\n16 mice were divided into 2 groups; 8 animals received the dosage of @2 gm/kg body weight of combined extract. Equal volume of the vehicle (DMSO) was given to 8 animals, wherein the dose was administered orally once and then animals were sacrificed and haematological parameters checked 15 days after treatment.\nExperimental subject: Mice; Balb/C Male; female; 25 gms body weight (approx).\n16 mice were divided into 2 groups 8 animals were received the compound @2 gm/kg body weight. Equal volume of the vehicle (DMSO) was given to 8 animals, wherein the dose was administered orally once, and then animals were sacrificed and haematological and biochemical parameters checked 15 days after treatment.\nBiochemical parameters were assessed for the pure molecule mahanine. Since it is a pure molecule there is a need to see the biochemical profile, therefore we concentrated on the biochemical parameters only. The experimental procedure followed was the same as that for the combined extract described above."}, "PARP": {"tested_on": "PARP", "test": "Immunoblotting of PARP cleavage in PC-3 cells", "type": "cell-based, human", "details": "3 μg/ml", "procedure": "as §1, §2"}, "cytochrome c": {"tested_on": "cytochrome c", "test": "Immunofluorescence of cytochrome c release in PC-3 cells", "type": "cell-based, human", "procedure": "Cells were cultured on glass cover slips. Both control and treated cells were fixed with PBS containing 4% paraformaldehyde for 2 hrs at 4° C. The cells were permiabilized with 0.1% Triton X-100 in PBS and then incubated with rabbit polyclonal anti-cytochrome c antibody (Santa Cruz, USA, dilution 1:50) for 3 hrs followed by incubation with FITC-conjugated secondary antibody (goat anti-rabbit, Santa Cruz, 1:50) for another 1 hr with rigorous washing in all the above steps with PBS. 1 μg/ml DAPI was also added in each set. The stained cells were observed under fluorescence microscope (Olympus BX51 microscope, Tokyo, Japan) and the images were captured with Cool Snap Pro camera."}, "skeletal muscle cells": {"tested_on": "skeletal muscle cells", "test": "Cell viability, primary culture of neonatal rat skeletal muscle", "type": "cell-based", "details": "9 μg/ml", "procedure": "The skeletal muscles from 2-day-old neonatal rats were isolated by method described previously by William E. Russell (1997) with modifications. Briefly, Soleus muscle was dissected, minced and digested with 0.2% Type II Collagenase and 0.05% trypsin in PBS pH 7.4, 0.15M NaCl. The dispersed skeletal muscle cells were centrifuged (100 g, 10 minutes) washed and resuspended in PBS with 1% antibiotic-antimycotic. Cells were preincubated for 30 minutes at 37° C., 95% air/5% CO2. The floating muscle cells were plated on collagen coated T-25 flasks in DMEM enriched with 10% FBS and 1% antibiotic-antimycotic.\nThe skeletal muscles from 2-day-old neonatal rat were isolated by method described previously by William E. Russell (1997) with modifications.\nBriefly, Soleus muscles were dissected, minced and digested with 0.2% Type II Collagenase and 0.05% trypsin in PBS, pH 7.4, 0.15M NaCl. The dispersed skeletal muscle cells were centrifuged (1000 g, 10 minutes) washed and re-suspended in PBS with 1% antibiotic-antimycotic. Cells were preincubated for 30 minutes at 37° C., 95% air/5% CO2. The floating muscle cells were plated on collagen coated T-25 flasks in DMEM enriched with 10% FBS and 1% antibiotic-antimycotic.\nas §4"}}, "note": "Entries after “also recorded” stand apart in the source; their conditions may differ.", "data": [{"substance": "mahanine", "values": [{"measurement": "time of peak of caspase 3 activity", "setting": "caspase 3; PC-3 cells (mahanine 3 μg/ml)", "result": 60, "unit": "h"}, {"measurement": "activation of caspase 3 at 48 hrs", "setting": "caspase 3; PC-3 cells, 48 hrs (mahanine 3 μg/ml)", "result": "considerably increased"}, {"measurement": "killing / apoptosis of androgen independent cell line PC-3", "setting": "PC-3 cells", "result": "in a dose and time dependent manner"}, {"measurement": "killing / apoptosis of androgen independent cell line PC-3", "setting": "PC-3 cells; listed as mahanine", "result": "in a time and dose dependent manner"}, {"measurement": "killing of cardiomyocytes in primary culture", "setting": "cardiomyocytes", "result": "did not kill"}, {"measurement": "Bcl-xl expression at 36 hrs", "setting": "Bcl-xl", "result": "significantly decreased; also recorded: considerably downregulated"}, {"measurement": "effect on steady state levels of Akt protein", "setting": "Akt; PC-3 cells", "result": "no effect"}, {"measurement": "inhibition of phosphorylation of Akt", "setting": "Akt; PC-3 cells", "result": "in a dose and time dependent manner"}, {"measurement": "time at which Akt serine 473 phosphorylation was inhibited", "setting": "Akt; PC-3 cells (mahanine 3 μg/ml)", "result": 24, "unit": "h"}, {"measurement": "time by which Akt activation was totally blocked", "setting": "Akt; PC-3 cells (mahanine 3 μg/ml)", "result": "≤ 36", "unit": "h"}, {"measurement": "killing of hepatocytes in primary culture", "setting": "hepatocytes", "result": "did not kill"}, {"measurement": "earliest time at which cleaved caspase 9 could be detected", "setting": "caspase 9", "result": 6, "unit": "h"}, {"measurement": "time course of cleaved caspase 9", "setting": "caspase 9", "result": "steadily increased at 12 hrs and 24 hrs, and declined at 36 hrs"}, {"measurement": "killing / apoptosis of androgen dependent cell line LNCaP", "setting": "LNCaP cells", "result": "in a dose and time dependent manner"}, {"measurement": "indication of toxicity in treated mice", "setting": "[1]; Balb/C mice, 2 gm/kg orally once, 15 days after treatment", "result": "no indication of any toxicity"}, {"measurement": "Creatinine", "setting": "[1]; Balb/C mice, 2 gm/kg orally once, 15 days after treatment, vehicle control 3.82", "result": 3.72, "unit": "mg/dL"}, {"measurement": "Hb", "setting": "[1]; Balb/C mice, 2 gm/kg orally once, 15 days after treatment, vehicle control 10.69", "result": 10.713, "unit": "gm/dl"}, {"measurement": "SGPT", "setting": "[1]; Balb/C mice, 2 gm/kg orally once, 15 days after treatment, vehicle control 32.0", "result": 30.7, "unit": "units/ml"}, {"measurement": "Urea", "setting": "[1]; Balb/C mice, 2 gm/kg orally once, 15 days after treatment, vehicle control 35.4", "result": 48.6, "unit": "mg/dL"}, {"measurement": "WBC", "setting": "[1]; Balb/C mice, 2 gm/kg orally once, 15 days after treatment, vehicle control 92", "result": 89}, {"measurement": "SGOT", "setting": "[1]; Balb/C mice, 2 gm/kg orally once, 15 days after treatment, vehicle control 147.5", "result": 174.0, "unit": "units/ml"}, {"measurement": "RBC", "setting": "[1]; Balb/C mice, 2 gm/kg orally once, 15 days after treatment, vehicle control 1029", "result": 1032}, {"measurement": "change in acute toxicity data until 1 month", "setting": "[1]; mice, until 1 month", "result": "no change"}, {"measurement": "time of maximum cleavage of PARP (89 kDa fragment)", "setting": "PARP", "result": 36, "unit": "h"}, {"measurement": "leakage of cytochrome c from the mitochondria", "setting": "cytochrome c", "result": "caused leakage of cytochrome c"}, {"measurement": "killing of skeletal muscle cells in primary culture", "setting": "skeletal muscle cells", "result": "did not kill"}]}]}
